{"source": "patent US5484911A", "about": "“Nucleoside 5'-diphosphate conjugates of ether lipids” (Health Research, Inc., priority 1993, dated 1996)", "key": {"L1210 lymphoid leukemia": {"test_system": "L1210 lymphoid leukemia", "experiment": "In vivo test against i.p. implanted L1210 lymphoid leukemia in DBA/2J mice", "protocol": "AZTDP-DL-PTBA was also tested for in vivo cytotoxicity against i.p. implanted L1210 lymphoid leukemia (10^6 cells) in DBA/2J mice."}, "Solubility in water": {"experiment": "Solubility in water", "type": "physicochemical", "protocol": "Solubility of AZTDP-DL-PTBA in water is only 0.58 mM. Thus, the compounds in the present invention were formulated in a micellar solution by sonication for the biological testings such as anti-HIV screenings. The compound was suspended in sterile water and then sonicated using a Branson Sonifier Cell Disruptor 200 at control 2-3 for 5 min (temp 20°-60° C.). The solution was sterile-filtered through a 0.22 μm membrane filter into a sterile receiving container under a laminar flow cabinet. The compound was existed as micelles and the micellar solution was stored in a refrigerator."}, "HIV-1": {"test_system": "HIV-1", "experiment": "microbe, parasite or virus in culture", "type": "cell-based", "from_the_text": "(§1) FIG. 3. Anti-HIV activity of AZTDP-DL-PTBA from the National Cancer Institute Developmental Therapeutics Program In-Vitro Testing Results; NSC 648540-S/1; Plate 5440; Lab 9N; SSPL:129N; Primary Screen Assay; Test Date, Jan. 21, 1992; Solubility Ind.: 1; Report Date, Apr. 27, 1992; Cell Line, CEM-IW; Solvent: Saline<0.9% (MEDIA).\n(§2) FIG. 4. Anti-HIV activity of AZddUDP-DL-PTBA from the National Cancer Institute Developmental Therapeutics Program In-Vitro Testing Results; NSC: 648541-T/1; Plate 5466; Lab 9N; SSPL: 129N; Primary Screen Assay; Test Date, Jan. 21, 1992; Solubility Ind.: 1; Report Date, Apr. 27, 1992; Cell Line: CEM-IW; Solvent: Saline<0.9% (MEDIA).\n(§3) FIG. 5. Anti-HIV activity of ddCDP-DL-PTBA from the National Cancer Institute Developmental Therapeutic Program In-Vitro Testing Results; NSC: D- 652872-A/1; Plate 24; Lab 9N; Primary Screen Assay; Test Date, Jul. 23, 1992; Solubility Ind.: 1; Report Date: Aug. 7, 1992; Cell Line: CEM-IW; Solvent: Saline<0.9% (MEDIA).\n(§4) FIG. 6. Anti-HIV activity of AZTDP-DL-PMA from the National Cancer Institute Developmental Therapeutics Program In-Vitro Testing Results; NSC: D- 652873-C/1; Plate 24; Lab 9N; SSPL: 129N; Primary Screen Assay; Test Date, Jul. 23, 1992; Solubility Ind.: 1; Report Date, Sep. 11, 1992; Cell Line: CEM-IW; Solvent: Saline<0.9% (MEDIA).\nAnti-HIV evaluation for the compounds was performed at the National Cancer Institute, National Institute of Health and is presented in FIGS. 3-6.\n(§5) The procedure is designed to detect agents acting at any stage of the virus reproductive cycle (Weislow, et al., J. Natl. Cancer Inst. 81, 577, 1989). The assay basically involves the killing of T4 lymphocytes by HIV. Small amounts of HIV are added to cells, and a complete cycle of virus reproduction is necessary to obtain the required cell killing. Agents that interact with virions, cells, or virus gene-products to interfere with viral activities will protect cells from cytolysis. Compounds that degenerate or are rapidly metabolized in the culture conditions may not show activity in this screen. All tests are compared with at least one positive (e.g., AZT-treated) control done at the same time under identical conditions.\n(§6) Compound was dissolved in DMSO then diluted 1:100 in cell culture medium before preparing serial half-log10 dilutions. T4 lymphocytes (CEM cell line) were added and after a brief interval HIV-1 was added, resulting in a 1:200 final dilution of the compound. Uninfected cells with the compound served as a toxicity control, and infected and uninfected without the compound served as basic controls. Cultures were incubated at 37° C. in a 5% CO2 atmosphere for 6 days. The tetrazolium salt, XTT, was added to the wells, and cultures were incubated to allow formazan color development by viable cells. Individual wells were analyzed spectrophotometrically to quantitate formazan production, and in addition were viewed microscopically for detection of viable cells and confirmation of protective activity. Drug-treated virus-infected cells were compared with drug-treated noninfected cells and with other appropriate controls (untreated infected and untreated noninfected cells, drug-containing wells without cells, etc.) on the same plate. Data were reviewed in comparison with other tests done at the same time and a determination about activity was made."}, "in vivo": {"experiment": "in vivo", "set-up": "species or system Female NIH-Swiss mice", "conditions": "mouse, ip, 394 mg/kg", "protocol": "FIG. 7. Mouse serum concentration of AZT following administration of AZT or AZTDP-DL-PTBA Female NIH-Swiss mice weighing 25-30 g were administered i.p. with AZT (100 mg/kg) or AZTDP-DL-PTBA (394 mg/kg, equivalent to 100 mg/kg AZT). Three mice were sacrificed at the designated time (up to 24 hr) and AZT in the serum was analyzed by a HPLC method.\nFemale NIH-Swiss mice weighing 25-30 g were administered intraperitoneally (i.p.) with 394 mg/kg of AZTDP-DL-PTBA (equivalent to 100 mg/kg AZT). Three mice were sacrificed at the designated time (up to 24 hours) and AZT in the serum was analyzed by an HPLC method. […] The intact conjugate level in the serum was unable to be checked by the HPLC method."}, "[1]": {"experiment": "Cytotoxicity to uninfected CEM cells (toxicity control of the anti-HIV assay)", "type": "cell-based", "conditions": "human", "from_the_text": "as §1, §2, §3, §4, §5, §6"}}, "note": "Like-named read-outs stand apart in the source and are kept apart here.", "data": [{"smiles": "CCCCCCCCCCCCCCCCCCSCC(COP(=O)(O)OP(=O)(O)OC[C@H]1O[C@@H](n2cc(C)c(=O)[nH]c2=O)C[C@@H]1N=[N+]=[N-])OC(=O)CCCCCCCCCCCCCCC", "note": "(mixture of isomers) [AZTDP-DL-PTBA]", "values": [{"measurement": "% ILS (increase in life span)", "setting": "L1210 lymphoid leukemia; 100-300 mg (95-285 μmole)/kg, L1210 10^6 cells i.p.", "result": 0, "unit": "%"}, {"measurement": "Toxicity", "setting": "L1210 lymphoid leukemia; 100-300 mg/kg, leukemic mice", "result": "Toxicity as reflected in weight loss was observed"}, {"measurement": "solubility", "setting": "Solubility in water", "result": 580, "unit": "µM"}, {"measurement": "concentration at which protection was lost", "setting": "HIV-1; HIV-infected CEM cells", "result": 180, "unit": "µM"}, {"measurement": "viability at 0.58 µM", "setting": "HIV-1; Human immunodeficiency virus 1, CCRF-CEM, at as low as 5.80×10^-7 M, read-out: protected HIV-infected CEM cells", "result": 80, "unit": "%"}, {"measurement": "viability at 180 µM", "setting": "HIV-1; Human immunodeficiency virus 1, CCRF-CEM, dose 1.80 × 10^-4 Molar (Tables 1, 2), read-out: INFECTED RESPONSE Percent of Control", "result": 1.53, "unit": "%"}, {"measurement": "viability at 18 µM", "setting": "HIV-1; Human immunodeficiency virus 1, CCRF-CEM, dose 1.80 × 10^-5 Molar (Tables 1, 2), read-out: INFECTED RESPONSE Percent of Control", "result": 110, "unit": "%"}, {"measurement": "viability at 1.8 µM", "setting": "HIV-1; Human immunodeficiency virus 1, CCRF-CEM, dose 1.80 × 10^-6 Molar (Tables 1, 2), read-out: INFECTED RESPONSE Percent of Control", "result": 95.6, "unit": "%"}, {"measurement": "viability at 580 µM", "setting": "HIV-1; Human immunodeficiency virus 1, CCRF-CEM, dose 5.80 × 10^-4 Molar (Tables 1, 2), read-out: INFECTED RESPONSE Percent of Control", "result": 0.57, "unit": "%"}, {"measurement": "viability at 58 µM", "setting": "HIV-1; Human immunodeficiency virus 1, CCRF-CEM, dose 5.80 × 10^-5 Molar (Tables 1, 2), read-out: INFECTED RESPONSE Percent of Control", "result": 122, "unit": "%"}, {"measurement": "viability at 5.8 µM", "setting": "HIV-1; Human immunodeficiency virus 1, CCRF-CEM, dose 5.80 × 10^-6 Molar (Tables 1, 2), read-out: INFECTED RESPONSE Percent of Control", "result": 98.1, "unit": "%"}, {"measurement": "viability at 0.58 µM", "setting": "HIV-1; Human immunodeficiency virus 1, CCRF-CEM, dose 5.80 × 10^-7 Molar (Tables 1, 2), read-out: INFECTED RESPONSE Percent of Control", "result": 81.6, "unit": "%"}, {"measurement": "Conclusion", "setting": "HIV-1; NCI screen conclusion, Tables 1-4", "result": "CONFIRMED ACTIVE"}, {"measurement": "conclusion / reported as anti-HIV drug", "setting": "HIV-1; NCI screening results", "result": "active"}, {"measurement": "in vitro anti-HIV activity", "setting": "HIV-1; result in words", "result": "strong in vitro anti-HIV activity"}, {"measurement": "half-life", "setting": "in vivo", "result": 7.85, "unit": "h"}, {"measurement": "MCC", "setting": "[1]; cem cells, read-out: concentration at which the compound started to show the cytotoxicity", "result": 100, "unit": "µM"}, {"measurement": "viability at 180 µM", "setting": "[1]; uninfected cem cells, dose 1.80 × 10^-4 Molar (Tables 1, 2), read-out: UNINFECTED RESPONSE Percent of Control", "result": 0.9, "unit": "%"}, {"measurement": "viability at 18 µM", "setting": "[1]; uninfected cem cells, dose 1.80 × 10^-5 Molar (Tables 1, 2), read-out: UNINFECTED RESPONSE Percent of Control", "result": 106, "unit": "%"}, {"measurement": "viability at 1.8 µM", "setting": "[1]; uninfected cem cells, dose 1.80 × 10^-6 Molar (Tables 1, 2), read-out: UNINFECTED RESPONSE Percent of Control", "result": 98.7, "unit": "%"}, {"measurement": "viability at 580 µM", "setting": "[1]; uninfected cem cells, dose 5.80 × 10^-4 Molar (Tables 1, 2), read-out: UNINFECTED RESPONSE Percent of Control", "result": -0.54, "unit": "%"}, {"measurement": "viability at 58 µM", "setting": "[1]; uninfected cem cells, dose 5.80 × 10^-5 Molar (Tables 1, 2), read-out: UNINFECTED RESPONSE Percent of Control", "result": 113, "unit": "%"}, {"measurement": "viability at 5.8 µM", "setting": "[1]; uninfected cem cells, dose 5.80 × 10^-6 Molar (Tables 1, 2), read-out: UNINFECTED RESPONSE Percent of Control", "result": 95.9, "unit": "%"}, {"measurement": "viability at 0.58 µM", "setting": "[1]; uninfected cem cells, dose 5.80 × 10^-7 Molar (Tables 1, 2), read-out: UNINFECTED RESPONSE Percent of Control", "result": 97, "unit": "%"}, {"measurement": "CC50", "setting": "[1]; CEM cells, read-out: cytotoxicity (IC50)", "result": 110, "unit": "µM"}, {"measurement": "CC50 at 144 h", "setting": "[1]; uninfected CEM-IW cells, 6 days, XTT, Tables 1-4, read-out: 1C50(Molar) (cytotoxicity)", "result": 110, "unit": "µM"}]}]}
